Assay results reported in ChEMBL document CHEMBL5634085, “Design, synthesis and antitrypanosomatid activity of 2-nitroimidazole-3,5-disubstituted isoxazole compounds based on benznidazole” (Eur J Med Chem, 2023).

Key:
Leishmania amazonensis [1] = assay: (§1) Antileishmanial activity against Leishmania amazonensis IFLA/BR/1967/PH8 amastigotes infected in mouse peritoneal macrophage assessed as inhibition of parasite growth pre-infected in cells for 4 hrs followed by compound addition and measured after 24 hrs by Giemsa staining based analysis; type: functional, organism-based; conditions: IFLA/BR/1967/PH8, Peritoneal macrophage
[2] = Cytotoxicity against monkey LLC-MK2 cells incubated for 72 hrs by MTT assay; type: toxicity, cell-based, Macaca mulatta; conditions: rhesus monkey
Trypanosoma cruzi [3] = assay: Antitrypanosomal activity against Trypanosoma cruzi Tulahuen lacZ expressing beta-galactosidase amastigotes infected in monkey LLC-MK2 cells assessed as inhibition of amastigotes pre-infected in cells for 48 hrs followed by compound addition and measured after 72 hrs by CPRG reagent based absorbance analysis; type: functional, organism-based
[4] = Selectivity index, ratio of CC50 for monkey LLC-MK2 cells to IC50 for Trypanosoma cruzi Tulahuen lacZ expressing beta-galactosidase amastigotes infected monkey LLC-MK2 cells; type: toxicity; conditions: read-out: Ratio CC50/IC50
[5] = Selectivity index, ratio of CC50 for cytotoxicity against monkey LLC-MK2 cells to IC50 for antileishmanial activity against Leishmania amazonensis IFLA/BR/1967/PH8 amastigotes infected in mouse peritoneal macrophage; type: toxicity, cell-based; conditions: read-out: Ratio CC50/IC50
Leishmania amazonensis [6] = assay: as §1, with “Potency index, ratio of pentamidine IC50 to test compound IC50 for antileishmanial” for “Antileishmanial”; type: functional, Peritoneal macrophage cell
Trypanosoma cruzi [7] = assay: Binding affinity to Trypanosoma cruzi type I nitro reductase at 25 uM incubated for 5 mins in the presence of NADH by microplate reader analysis
Trypanosoma cruzi [8] = assay: Binding affinity to Trypanosoma cruzi type I nitro reductase at 10 uM incubated for 5 mins in the presence of NADH by microplate reader analysis

| IC50 (Trypanosoma cruzi [3]) [µM] | Kobs (Trypanosoma cruzi [7]) [s⁻¹] | Kobs (Trypanosoma cruzi [8]) [s⁻¹] | Compound | IC50 (Leishmania amazonensis [1]) [µM] | CC50 at 72 h [2] [µM] | selectivity ratio [4] | selectivity ratio [5] | Ratio IC50 (Leishmania amazonensis [6]) |
| --- | --- | --- | --- | --- | --- | --- | --- | --- |
| 6.6 |  |  | CC(C)N1CCN(c2ccc(-c3cc(Cn4ccnc4[N+](=O)[O-])on3)cc2)CC1 | 4.7 | > 50 | > 7.6 | > 10.6 | 3.5 |
| 12 |  |  | COc1cc(OC)c(Cl)c(-c2cc(Cn3ccnc3[N+](=O)[O-])on2)c1 | 2.2 | > 50 | > 4.2 | > 22.6 | 7.6 |
| > 100 |  |  | N#Cc1ccc(-c2cc(Cn3ccnc3[N+](=O)[O-])on2)cc1 | 34.6 | > 50 | > 0.6 | > 1.4 |  |
| 24.2 | 0.57 | 0.54 | COc1ccc(-c2cc(Cn3ccnc3[N+](=O)[O-])on2)cc1[N+](=O)[O-] | 15.2 | > 50 | > 2.1 | > 3.3 |  |
| 31.4 |  |  | CSc1ccc(-c2cc(Cn3ccnc3[N+](=O)[O-])on2)cc1 | 22.4 | > 50 | > 1.6 | > 2.2 |  |
| 5.1 |  |  | O=[N+]([O-])c1nccn1Cc1cc(-c2ccc(Br)cc2)no1 | 17.4 | 43 | 8.4 | > 2.5 |  |
| 40.4 |  |  | N#Cc1cccc(-c2cc(Cn3ccnc3[N+](=O)[O-])on2)c1 | 36.6 | > 50 | > 1.2 | > 1.4 |  |
| 1.9 |  |  | COc1cc(-c2cc(Cn3ccnc3[N+](=O)[O-])on2)cc(OC)c1OC | 14.6 | > 50 | > 25.9 | > 3.4 |  |
| 4 |  |  | O=[N+]([O-])c1nccn1Cc1cc(-c2ccccc2)no1 | 33.1 | > 50 | > 12.3 | > 1.5 |  |
| 4.6 |  |  | COc1ccccc1-c1cc(Cn2ccnc2[N+](=O)[O-])on1 | 12.7 | > 50 | > 10.9 | > 3.9 |  |
| 3 |  |  | COc1ccc(-c2cc(Cn3ccnc3[N+](=O)[O-])on2)cc1O | 17.1 | > 50 | > 16.6 | > 2.9 |  |
| 11.2 |  |  | COc1cccc(-c2cc(Cn3ccnc3[N+](=O)[O-])on2)c1 | 12.5 | > 50 | > 4.4 | > 4 |  |
| 3.7 |  |  | O=[N+]([O-])c1nccn1Cc1cc(-c2ccc(Cl)cc2Cl)no1 | 33.7 | 43.2 | > 11.4 | 1.3 |  |
| 33.6 |  |  | Cc1ccc(-c2cc(Cn3ccnc3[N+](=O)[O-])on2)cc1[N+](=O)[O-] | 3.3 | > 50 | > 1.5 | > 15.3 | 5.1 |
| 9.3 |  |  | O=[N+]([O-])c1nccn1Cc1cc(-c2cccc(Cl)c2)no1 | 10.2 | > 50 | > 5.3 | > 4.9 |  |
| 9.3 |  |  | Cc1ccc(-c2cc(Cn3ccnc3[N+](=O)[O-])on2)cc1 | 26.7 | > 50 | > 5.4 | > 1.9 |  |
| 2.2 |  |  | O=[N+]([O-])c1nccn1Cc1cc(-c2ccc(Cl)c(Cl)c2)no1 | 18.9 | > 50 | > 22.2 | > 2.6 |  |
| 6.2 |  |  | Nc1ccc(-c2cc(Cn3ccnc3[N+](=O)[O-])on2)cc1 | 21.7 | > 50 | > 8.1 | > 2.3 |  |
| 18.3 |  |  | O=[N+]([O-])c1ccc(-c2cc(Cn3ccnc3[N+](=O)[O-])on2)cc1 | 32.4 | 46.1 | 2.5 | 1.4 |  |
| 3.9 |  |  | O=[N+]([O-])c1nccn1Cc1cc(-c2ccc(N3CCCCCC3)cc2)no1 | 25.1 | > 50 | > 12.8 | > 1.9 |  |
| 1.9 |  |  | COc1ccc(-c2cc(Cn3ccnc3[N+](=O)[O-])on2)cc1 | 17.3 | > 50 | > 25.6 | > 2.9 |  |
| 5.3 |  |  | O=[N+]([O-])c1cccc(-c2cc(Cn3ccnc3[N+](=O)[O-])on2)c1 | 35.1 | > 50 | > 9.4 | > 1.4 |  |
| 2.8 |  |  | O=[N+]([O-])c1nccn1Cc1cc(-c2ccc(N3CCOCC3)cc2)no1 | 54.1 | > 50 | > 18 | > 0.9 |  |
| 2.3 |  |  | O=[N+]([O-])c1nccn1Cc1cc(-c2ccc(N3CCCC3)cc2)no1 | 9.9 | > 50 | > 21.7 | > 5 |  |
| 6.5 |  |  | O=[N+]([O-])c1nccn1Cc1cc(-c2ccc(F)c(F)c2)no1 | 17.7 | > 50 | > 7.6 | > 2.8 |  |
| 2.3 | 0.31 | 0.24 | CN(C)c1ccc(-c2cc(Cn3ccnc3[N+](=O)[O-])on2)cc1 | 33.4 | > 50 | > 21.2 | > 1.5 |  |
| 7.5 |  |  | O=[N+]([O-])c1nccn1Cc1cc(-c2ccc(N3CCCCC3)cc2)no1 | 31.1 | > 50 | > 6.7 | > 1.6 |  |
| 6 |  |  | COc1cc(OC)cc(-c2cc(Cn3ccnc3[N+](=O)[O-])on2)c1 | 10.1 | > 50 | > 8.3 | > 4.9 |  |
| > 100 |  |  | O=[N+]([O-])c1nccn1Cc1cc(-c2ccc(N3CCN(c4ccccc4)CC3)cc2)no1 | > 100 | > 50 | > 1 | > 0.5 |  |

Second part, the compound before the results:

| Compound | IC50 (Trypanosoma cruzi [3]) [µM] | Kobs (Trypanosoma cruzi [7]) [s⁻¹] | Kobs (Trypanosoma cruzi [8]) [s⁻¹] | IC50 (Leishmania amazonensis [1]) [µM] | CC50 at 72 h [2] [µM] | selectivity ratio [4] | selectivity ratio [5] | Ratio IC50 (Leishmania amazonensis [6]) |
| --- | --- | --- | --- | --- | --- | --- | --- | --- |
| COc1cc(-c2cn(-c3cc(OC)c(OC)c(OC)c3)nn2)cc(OC)c1OC |  |  |  | 9.4 |  |  |  |  |
| COc1ccc(-c2cn(-c3cc(OC)c(OC)c(OC)c3)nn2)cc1OC |  |  |  | 5.6 |  |  |  |  |
| O=[N+]([O-])c1nccn1Cc1cc(-c2ccc(N3CCN(CCO)CC3)cc2)no1 | 7.5 |  |  | 5.6 | > 50 | > 6.7 | > 8.8 | 2.9 |
| COc1ccc(-c2cc(Cn3ccnc3[N+](=O)[O-])on2)cc1Cl | 1 |  |  | 31.3 | > 50 | > 49 | > 1.6 |  |
| COc1ccc(-n2cc(-c3cc(OC)c(OC)c(OC)c3)nn2)cc1OC |  |  |  | 29.2 |  |  |  |  |
| N=C(N)c1ccc(OCCCCCOc2ccc(C(=N)N)cc2)cc1 [PENTAMIDINE] |  |  |  | 16.8 |  |  |  |  |
| COc1ccc(-c2cc(-c3cc(OC)c(OC)c(OC)c3)on2)cc1OC |  |  |  | 0.4 |  |  |  |  |
| O=[N+]([O-])c1nccn1Cc1cc(-c2ccc(OC(F)(F)F)cc2)no1 | 15.2 |  |  | 35.6 | > 50 | > 3.3 | > 1.4 |  |
| O=[N+]([O-])c1nccn1Cc1cc(-c2ccccn2)no1 | 7.5 |  |  | 37.8 | > 50 | > 6.7 | > 1.3 |  |
| C[C@@H]1[C@H](O)[C@@H](C)/C=C/C=C/C=C/C=C/C=C/C=C/C=C/[C@H](O[C@@H]2O[C@H](C)[C@@H](O)[C@H](N)[C@@H]2O)C[C@@H]2O[C@](O)(C[C@@H](O)C[C@@H](O)[C@H](O)CC[C@@H](O)C[C@@H](O)CC(=O)O[C@H]1C)C[C@H](O)[C@H]2C(=O)O [AMPHOTERICIN B] |  |  |  | 2.3 | 22.8 |  | 9.87 |  |
| COc1cc(-c2cc(-c3ccc4c(c3)OCO4)no2)cc(OC)c1OC |  |  |  | 1.4 |  |  |  |  |
| COc1cc(-c2cc(-c3cc(OC)c(OC)c(OC)c3)on2)cc(OC)c1OC |  |  |  | 2.9 |  |  |  |  |
| O=[N+]([O-])c1nccn1Cc1cc(-c2cccnc2)no1 | 7.8 |  |  | 73.8 | > 50 | > 6.4 | > 0.7 |  |
| COc1ccc(-c2cc(-c3cc(OC)c(OC)c(OC)c3)no2)cc1OC |  |  |  | 0.7 |  |  |  |  |
| O=[N+]([O-])c1nccn1Cc1cc(-c2ccc(Cl)cc2)no1 | 1.5 |  |  | 26.6 | 48 | 32.5 | 1.8 |  |
| O=[N+]([O-])c1nccn1Cc1cc(-c2ccc(F)cc2)no1 | 3.3 |  |  | 24.2 | > 50 | > 15.3 | > 2.1 |  |
| COc1cc(-n2cc(-c3ccc4c(c3)OCO4)nn2)cc(OC)c1OC |  |  |  | 4.4 |  |  |  |  |
| O=[N+]([O-])c1nccn1Cc1cc(-c2ccncc2)no1 | 3.1 |  |  | 16.3 | > 50 | > 16.3 | > 3 |  |
| O=[N+]([O-])c1nccn1Cc1cc(-c2ccc(C(F)(F)F)cc2)no1 | 23 |  |  | 18 | 18.9 | 0.8 | 1 |  |
